According to the supplement of paper PMC10307832:

Experiments:
Assay in all cases: relative viability (nuclei count vs DMSO), 5 days (fraction); higher = more cells survive
NCI-H1651 = tested on: NCI-H1651
How it was run: (§1)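 Nuclei were stained with Hoechst during a one-step fixation (final 0.05% Triton X-100, 1% formaldehyde, 1 ug/ml Hoechst) carried out 5 days after dosing, then counted on 4× images. The cells, lung cancer lines in 1536-well plates, had been dosed by pin tool the day after seeding with one drug alone or a fixed anchor-drug dose plus five library-drug doses (not always all listed) in √10 steps. Relative viability is the nuclei count in treated wells divided by that in vehicle wells, and each value is the median of duplicate plates.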

NCI-H1793 = tested on: NCI-H1793
How it was run: as §1

NCI-H1944 = tested on: NCI-H1944
How it was run: as §1

NCI-H1993 = tested on: NCI-H1993
How it was run: as §1

NCI-H2085 = tested on: NCI-H2085
How it was run: as §1

NCI-H2087 = tested on: NCI-H2087
How it was run: as §1

NCI-H23 = tested on: NCI-H23
How it was run: as §1

NCI-H2405 = tested on: NCI-H2405
How it was run: as §1

NCI-H322M = tested on: NCI-H322M
How it was run: as §1

NCI-H520 = tested on: NCI-H520
How it was run: as §1

NCI-H650 = tested on: NCI-H650
How it was run: as §1

SK-MES-1 = tested on: SK-MES-1
How it was run: as §1

UMC-11 = tested on: UMC-11
How it was run: as §1

## COc1cc(N2CCC(C(N)=O)CC2)ccc1Nc1nc(N)c(Cl)c(Nc2ccccc2S(=O)(=O)C(C)C)n1 [HG-5-88-01] + COc1cccc2cc(-c3nc([C@H]4CC[C@H](C(=O)O)CC4)n4ncnc(N)c34)[nH]c12 [OSI-027] (partner 0.5 µM)
NCI-H1651; first compound 1.265 µM
  relative viability: 0.627
NCI-H1651; first compound 4 µM
  relative viability: 0.58
NCI-H1793; first compound 0.1265 µM
  relative viability: 0.269
NCI-H1793; first compound 0.4 µM
  relative viability: 0.236
NCI-H1793; first compound 4 µM
  relative viability: 0.177
NCI-H1944; first compound 0.04 µM
  relative viability: 0.386
NCI-H1944; first compound 0.1265 µM
  relative viability: 0.391
NCI-H1944; first compound 0.4 µM
  relative viability: 0.422
NCI-H1944; first compound 1.265 µM
  relative viability: 0.297
NCI-H1944; first compound 4 µM
  relative viability: 0.251
NCI-H1993; first compound 0.04 µM
  relative viability: 0.536
NCI-H1993; first compound 0.1265 µM
  relative viability: 0.504
NCI-H1993; first compound 0.4 µM
  relative viability: 0.52
NCI-H1993; first compound 1.265 µM
  relative viability: 0.532
NCI-H1993; first compound 4 µM
  relative viability: 0.536
NCI-H2085; first compound 0.04 µM
  relative viability: 0.713
NCI-H2085; first compound 0.1265 µM
  relative viability: 0.872
NCI-H2085; first compound 0.4 µM
  relative viability: 0.615
NCI-H2085; first compound 1.265 µM
  relative viability: 0.384
NCI-H2085; first compound 4 µM
  relative viability: 0.321
NCI-H2087; first compound 0.04 µM
  relative viability: 0.521
NCI-H2087; first compound 0.1265 µM
  relative viability: 0.542
NCI-H2087; first compound 0.4 µM
  relative viability: 0.505
NCI-H2087; first compound 1.265 µM
  relative viability: 0.349
NCI-H2087; first compound 4 µM
  relative viability: 0.215
NCI-H23; first compound 0.04 µM
  relative viability: 0.511
NCI-H23; first compound 0.1265 µM
  relative viability: 0.605
NCI-H23; first compound 0.4 µM
  relative viability: 0.615
NCI-H23; first compound 1.265 µM
  relative viability: 0.311
NCI-H23; first compound 4 µM
  relative viability: 0.238
NCI-H2405; first compound 0.04 µM
  relative viability: 0.579
NCI-H2405; first compound 0.1265 µM
  relative viability: 0.559
NCI-H2405; first compound 0.4 µM
  relative viability: 0.539
NCI-H2405; first compound 1.265 µM
  relative viability: 0.343
NCI-H2405; first compound 4 µM
  relative viability: 0.382
NCI-H322M; first compound 0.04 µM
  relative viability: 0.501
NCI-H322M; first compound 0.1265 µM
  relative viability: 0.481
NCI-H322M; first compound 0.4 µM
  relative viability: 0.448
NCI-H322M; first compound 4 µM
  relative viability: 0.293
NCI-H520; first compound 0.04 µM
  relative viability: 0.23
NCI-H520; first compound 0.1265 µM
  relative viability: 0.258
NCI-H520; first compound 0.4 µM
  relative viability: 0.236
NCI-H520; first compound 1.265 µM
  relative viability: 0.289
NCI-H520; first compound 4 µM
  relative viability: 0.221
NCI-H650; first compound 0.04 µM
  relative viability: 0.492
NCI-H650; first compound 0.1265 µM
  relative viability: 0.476
NCI-H650; first compound 0.4 µM
  relative viability: 0.431
NCI-H650; first compound 1.265 µM
  relative viability: 0.443
NCI-H650; first compound 4 µM
  relative viability: 0.319
SK-MES-1; first compound 0.04 µM
  relative viability: 0.603
SK-MES-1; first compound 0.1265 µM
  relative viability: 0.569
SK-MES-1; first compound 0.4 µM
  relative viability: 0.492
SK-MES-1; first compound 1.265 µM
  relative viability: 0.331
SK-MES-1; first compound 4 µM
  relative viability: 0.4
UMC-11; first compound 0.04 µM
  relative viability: 0.347
UMC-11; first compound 0.1265 µM
  relative viability: 0.521
UMC-11; first compound 1.265 µM
  relative viability: 0.464
UMC-11; first compound 4 µM
  relative viability: 0.334
